Target: T1, human PPARα (Homo sapiens, UniProt Q07869)
T1 construct: 1.6 kb of DNA fragment including human PPARα gene was collected from the gel; expressed in transfected cells; host or cells: CV-1 cells, transient transfection with pCI-hPPARa, pCI-hRXRa and the reporter pGL3-PPRE3-TK
T1 sequence (Q07869 1-468): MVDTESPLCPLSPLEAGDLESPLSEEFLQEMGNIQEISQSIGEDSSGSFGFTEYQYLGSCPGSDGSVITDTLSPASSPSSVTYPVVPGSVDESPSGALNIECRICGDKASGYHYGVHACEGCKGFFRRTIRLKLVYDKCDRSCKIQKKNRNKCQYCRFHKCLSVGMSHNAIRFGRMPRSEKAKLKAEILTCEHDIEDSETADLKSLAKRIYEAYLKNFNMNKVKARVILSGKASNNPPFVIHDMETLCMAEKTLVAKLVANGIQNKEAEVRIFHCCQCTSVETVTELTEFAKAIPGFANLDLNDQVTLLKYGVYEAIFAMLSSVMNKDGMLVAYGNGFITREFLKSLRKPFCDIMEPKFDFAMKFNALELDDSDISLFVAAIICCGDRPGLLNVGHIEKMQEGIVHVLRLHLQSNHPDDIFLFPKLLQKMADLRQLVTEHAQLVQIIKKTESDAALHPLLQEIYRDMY
T1 sequence (P19793 1-462 partner): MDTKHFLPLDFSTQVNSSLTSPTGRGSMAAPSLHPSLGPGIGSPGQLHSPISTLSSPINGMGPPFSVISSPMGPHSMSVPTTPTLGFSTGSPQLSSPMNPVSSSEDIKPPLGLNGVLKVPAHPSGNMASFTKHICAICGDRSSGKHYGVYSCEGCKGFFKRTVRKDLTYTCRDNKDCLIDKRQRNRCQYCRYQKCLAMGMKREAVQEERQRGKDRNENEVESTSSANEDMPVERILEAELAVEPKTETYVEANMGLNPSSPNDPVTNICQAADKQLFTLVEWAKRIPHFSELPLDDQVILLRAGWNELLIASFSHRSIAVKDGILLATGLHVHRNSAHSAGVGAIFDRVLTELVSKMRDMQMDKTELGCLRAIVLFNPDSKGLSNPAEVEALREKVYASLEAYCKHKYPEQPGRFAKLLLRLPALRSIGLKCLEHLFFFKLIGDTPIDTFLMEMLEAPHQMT
Test: Human PPARα agonist assay (luciferase reporter in transfected CV-1 cells)
Format: cell-based
Settings: at 1 μM test compound alone; 100% = 1 μM stimulant (GW7647) only; CV-1 cells expressing human PPARα and RXRα
Method: CV-1 cells (96 well plate), where human PPARα and RXRα has expressed in the transient transfection of reporter plasmid (see reference 6a) were washed once with PBS (100 μL/well), and then supplemented with 100 μL/well of DMEM medium including 10% of fetal bovine serum to which test compounds at final concentrations of 10 nM, 30 nM, 100 nM, 300 nM, 1 μM, and 3 μM, as well as GW7647 (not limited to GW7647 shown as an example, but may be any PPARα agonist) at a final concentration of 1 nM as a stimulant were added, and incubated in a 5% CO2 incubator at 37° C. for 24 hours. After removing the medium, the CV-1 cells were washed once with PBS (100 μL/well), and supplemented with 60 μL/well of 1× Passive Lysis Buffer (manufactured by Promega Corporation). The CV-1 cells were incubated at room temperature for 30 minutes, stirred, and then by using Dual-Luciferase Reporter Assay System (manufactured by Promega Corporation), luciferase activities of firefly and renilla were measured using 1420 ARVO Multilabel Counter (manufactured by Wallac Oy). Also, the same experiments as that described above were respectively carried out for the cases where only the above-mentioned stimulant (10 nM, 100 nM, 1 μM) were used, where only the above-mentioned test compounds were used, or where neither was used (nonsupplemented), and luciferase activities of firefly and renilla were measured. Values corrected by dividing the firefly luciferase activities by the renilla luciferase activities were calculated as specific activities and used for evaluations. […]
Also, human PPARα agonist activities of the test compounds were evaluated by using a percentage (activity) where the specific activity when nonsupplemented is regarded as 0% and the specific activity in case only 1 μM stimulant was added is regarded as 100%, from the specific activity in case only the test compound is used.
CV-1 cells were cultured in DMEM medium (manufactured by Invitrogen Corporation) including 10% fetal bovine serum (manufactured by Dainippon Pharmaceutical Co., Ltd.) in 225T-Flask (manufactured by Corning Costar). The cells were detached by 0.5 g/L trypsin-0.2 g/L EDTA (ethylene diamine tetra-acetic acid) (manufactured by Invitrogen Corporation), and then suspended in the DMEM medium including 10% fetal bovine serum to a cell concentration of 2×10^5 cells/mL. Thereafter, the cells were seeded into 96 well plate at 2×10^4 cells/0.1 mL/well, incubated in the CO2 incubator at 37° C. overnight, and then the plasmids prepared by the above-mentioned reference 2a, reference 3a, and reference 4a were transfected into cells by using a lipofectamine reagent (manufactured by Invitrogen Corporation) according to the attached manual.
Namely, after CV-1 cells were cultured overnight, the cells were washed with PBS (100 μL/well). Thereafter the cells were incubated for 5 hours at 37° C./5% CO2 in the MEM medium (manufactured by Invitrogen Corporation) including 430 ng/mL of human PPARα expression plasmid (pCI-hPPARa) prepared by the reference 2a, 430 ng/mL of human RXRα expression plasmid (pCI-hRXRa) prepared by the reference 3a, and 140 ng/mL of the reporter plasmid (pGL3-PPRE3-TK) prepared by the reference 4a, 10 ng/mL of phRL-TK vector (manufactured by Promega Corporation) and 2 μL/mL of lipofectamine.

Row | SMILES | Human PPARα agonist activities, Activity % (at 1 μM) [%]
1 | COc1cc(Cn2c3ccccc3c3c(OC(C)(C)C(=O)O)cccc32)ccc1OCc1nc(-c2ccccc2)oc1C [Example 3, 2-{9-[3-methoxy-4-((5-methyl-2-phenyl-oxazole-4-yl)methoxy)-benzyl]-9H-carbazole-4-yloxy}-2-methyl-propionic acid] | 43
2 | COc1cc(Cn2c3ccccc3c3c(OC(C)(C)C(=O)[O-])cccc32)ccc1OCc1nc(-c2ccccc2)oc1C.[Na+] [Example 28, sodium 2-{9-[3-methoxy-4-((5-methyl-2-phenyl-oxazole-4-yl)methoxy)-benzyl]-9H-carbazole-4-yloxy}-2-methyl-propionate] | 56

— patent publication US8329913B2, “Carbazole derivative, solvate thereof, or pharmaceutically acceptable salt thereof” (Zeria Pharmaceutical Co., Ltd., priority 2004, dated 2012)
